What all share (type): cell-based
In assay [1] the test system is Pseudomonas aeruginosa. As to the kind of experiment: MIC, test tube serial dilution, Pseudomonas aeruginosa.
Assay [2] relates to Escherichia coli. As to the kind of experiment: MIC, test tube serial dilution, Escherichia coli.
For assay [3], the system named is Proteus vulgaris. The assay is described as follows: MIC, test tube serial dilution, Proteus vulgaris.
Assay [4] concerns Klebsiella-Aerobacter. As to the kind of experiment: MIC, test tube serial dilution, Klebsiella-Aerobacter.
Assay [5] concerns Streptococcus faecalis. The assay is described as follows: MIC, test tube serial dilution, Streptococcus faecalis.
Assay [6] relates to Staphylococcus aureus. The assay is described as follows: MIC, test tube serial dilution, Staphylococcus aureus.
Assay [7] concerns Proteus morganii. The assay is described as follows: MIC, test tube serial dilution, Proteus morganii.
The mark [8] stands for this setting: strain 1756 (BRL 1 756), 24 hours, 37°C.

Each structure is given as a SMILES string. Some results are limits rather than exact numbers.

On to `CCOC(=O)NS(=O)(=O)N1CCN(C(=O)N[C@@H](C(=O)N[C@@H]2C(=O)N3[C@@H]2SC(C)(C)[C@@H]3C(=O)O)c2ccccc2)C1=O` [Example 22, Sodium D(-)-α-{[3-(ethoxy-carbonyl-amino-sulphonyl)imidazolidin-2-on-1-yl]-carbonylamino}-benzylpenicillin], for which the MIC in assay [1] (in µg/mL (unit assumed)) is 32; in assay [1] (strain Bonn, 24 hours, 37°C), 16 U/ml; in assay [2] (strain 183/58, 24 hours, 37°C), 8 U/ml; in assay [2] (strain A 261, 24 hours, 37°C) it was over 256 U/ml; in assay [3] (strain 1017, 24 hours, 37°C) it was 16 U/ml; in assay [4] (in µg/mL (unit assumed)) it was 32. The MIC in assay [4] (strain 63, 24 hours, 37°C) is 64 U/ml; in assay [5] (unit assumed) it was 32 µg/mL; in assay [6] (setting [8]) it was 128 U/ml; in assay [7] (unit assumed) it was 128 µg/mL.
As for `CC1(C)S[C@@H]2[C@H](NC(=O)[C@H](NC(=O)N3CCN(C=O)C3=O)c3ccccc3)C(=O)N2[C@H]1C(=O)O` [Example 20, Sodium D(-)-α-[(3-formyl-imidazolidin-2-on-1-yl)-carbonylamino]-benzylpenicillin], the MIC is 8 in assay [1] (in µg/mL (unit assumed)); 16 U/ml in assay [1] (strain Walter, 24 hours, 37°C); 64 U/ml in assay [2] (strain 183/58, 24 hours, 37°C); over 256 U/ml in assay [2] (strain A 261, 24 hours, 37°C); 16 U/ml in assay [3] (strain 1017, 24 hours, 37°C); 32 in assay [4] (in µg/mL (unit assumed)). The MIC in assay [4] (strain 63, 24 hours, 37°C) was found to be 64 U/ml; in assay [5] (unit assumed), 32 µg/mL; in assay [6] (setting [8]), 128 U/ml; in assay [7] (unit assumed) it was 8 µg/mL.
For `CC1(C)S[C@@H]2[C@H](NC(=O)C(NC(=O)N3CCN(S(C)(=O)=O)C3=O)c3c(Cl)cccc3Cl)C(=O)N2[C@H]1C(=O)O` (stereo partly drawn) [Penicillin No. 5 (Table 3), Sodium D,L-α-[(3-methylsulphonyl-imidazolidin-2-on-1-yl)-carbonylamino]-2,6-dichloro-benzylpenicillin], the MIC is at least 256 U/ml in assay [1] (Table 3, strain F 41); at least 256 U/ml in assay [1] (Table 3, strain Walter); 256 U/ml in assay [2] (Table 3, strain 14); 256 U/ml in assay [2] (Table 3, strain 183/58); at least 256 U/ml in assay [2] (Table 3, strain A 261); at least 256 U/ml in assay [2] (Table 3, strain C 165). Also, the MIC is 256 U/ml in assay [3] (Table 3, strain 1017); at least 256 U/ml in assay [4] (Table 3, strain 63); at least 256 U/ml in assay [4] (Table 3, strain K 10); 256 U/ml in assay [5] (Table 3, ATCC 9790); 4 U/ml in assay [6] (Table 3, strain 133); at least 256 U/ml in assay [6] (Table 3, strain 1756E). The molecule also gave an MIC in assay [7] (Table 3, strain 932) of 32 U/ml.
For the molecule `CCS(=O)(=O)N1CCN(C(=O)N[C@@H](C(=O)N[C@@H]2C(=O)N3[C@@H]2SC(C)(C)[C@@H]3C(=O)O)c2ccccc2)C1=O` [Penicillin No. 11 (Table 3), Sodium D(-)-α-[(3-ethylsulphonyl-imidazolidin-2-on-1-yl)-carbonylamino]-benzylpenicillin], the MIC in assay [1] (Table 3, strain F 41) is reported as 64 U/ml; in assay [1] (Table 3, strain Walter), 64 U/ml; in assay [2] (Table 3, strain 14), under 1 U/ml; in assay [2] (Table 3, strain 183/58), 2 U/ml; in assay [2] (Table 3, strain A 261), 512 U/ml; in assay [2] (Table 3, strain C 165), 4 U/ml. Also, the MIC amounted to 4 U/ml in assay [3] (Table 3, strain 1017); 16 U/ml in assay [4] (Table 3, strain 63); 16 U/ml in assay [4] (Table 3, strain K 10); 64 U/ml in assay [5] (Table 3, ATCC 9790); 2 U/ml in assay [6] (Table 3, strain 133); 128 U/ml in assay [6] (Table 3, strain 1756E). The molecule further yielded an MIC in assay [7] (Table 3, strain 932) of 16 U/ml.
With `CC(=O)N1CCN(C(=O)NC(C(=O)N[C@@H]2C(=O)N3[C@@H]2SC(C)(C)[C@@H]3C(=O)O)c2ccc(C)cc2)C1=O` (stereo partly drawn) [Penicillin No. 8 (Table 3), Sodium D,L-α-[(3-acetyl-imidazolidin-2-on1-yl)-carbonylamino]-4-methyl-benzylpenicillin], the MIC worked out at 128 U/ml in assay [1] (Table 3, strain F 41); 64 U/ml in assay [1] (Table 3, strain Walter); 2 U/ml in assay [2] (Table 3, strain 14); 8 U/ml in assay [2] (Table 3, strain 183/58); 512 U/ml in assay [2] (Table 3, strain A 261); 8 U/ml in assay [2] (Table 3, strain C 165). Moreover, the MIC in assay [3] (unit assumed) was 16 µg/mL; in assay [4] (Table 3, strain 63) it was 128 U/ml; in assay [4] (Table 3, strain K 10), 32 U/ml; in assay [5] (Table 3, ATCC 9790), 64 U/ml; in assay [6] (Table 3, strain 1756E), ~ 64 U/ml; in assay [7] (Table 3, strain 932) it was 32 U/ml.
In the case of `CC(=O)N1CCN(C(=O)N[C@@H](C(=O)N[C@@H]2C(=O)N3[C@@H]2SC(C)(C)[C@@H]3C(=O)O)c2ccccc2)C1=O` [Example 1, Sodium D(-)-α-[(3-acetyl-imidazolidin-2-on-1-yl)-carbonylamino]-benzylpenicillin], the MIC in assay [1] (strain Bonn, 24 hours, 37°C) came to 25 U/ml; in assay [1] (strain Walter, 24 hours, 37°C), 50 U/ml; in assay [2] (strain 183/58, 24 hours, 37°C) it was 3 U/ml; in assay [2] (strain A 261, 24 hours, 37°C) it was 400 U/ml; in assay [3] (unit assumed), 6 µg/mL; in assay [4] (strain 63, 24 hours, 37°C), 25 U/ml. Further, the MIC in assay [4] (strain K 10, 24 hours, 37°C) was determined as 100 U/ml; in assay [5] (ATCC 9790, 24 hours, 37°C), 25 U/ml; in assay [6] (setting [8]), 400 U/ml; in assay [7] (unit assumed), 6 µg/mL.
With `CCS(=O)(=O)N1CCN(C(=O)N[C@@H](C(=O)N[C@@H]2C(=O)N3[C@@H]2SC(C)(C)[C@@H]3C(=O)O)c2ccccc2)C1=O` [Example 24, Sodium D(-)-α-[(3-ethanesulphonyl-imidazolidin-2-on-1-yl)-carbonylamino]-benzylpenicillin], the MIC was 32 in assay [1] (in µg/mL (unit assumed)); under 1 U/ml in assay [2] (strain 183/58, 24 hours, 37°C); 512 U/ml in assay [2] (strain A 261, 24 hours, 37°C); 2 µg/mL in assay [3] (unit assumed); 8 in assay [4] (in µg/mL (unit assumed)); 16 U/ml in assay [5] (ATCC 9790, 24 hours, 37°C). Further, the MIC in assay [6] (setting [8]) turned out to be 32 U/ml; in assay [7] (unit assumed) it was 2 µg/mL.
As for `CC1(C)S[C@@H]2[C@H](NC(=O)[C@H](NC(=O)N3CCN(C(=O)N4CCCCC4)C3=O)c3ccccc3)C(=O)N2[C@H]1C(=O)O` [Example 9, Sodium D(-)-α-[(3-piperdyl-N-carbonyl-imidazolidin-2-on-1-yl)-carbonylamino]-benzylpenicillin], the MIC in assay [1] (in µg/mL (unit assumed)) is 32; in assay [1] (strain Bonn, 24 hours, 37°C), 64 U/ml; in assay [2] (strain 183/58, 24 hours, 37°C), 4 U/ml; in assay [2] (strain A 261, 24 hours, 37°C), over 256 U/ml; in assay [3] (unit assumed), 32 µg/mL; in assay [4] (in µg/mL (unit assumed)), 8. For the same molecule, the MIC in assay [5] (unit assumed) was 128 µg/mL; in assay [6] (setting [8]), over 256 U/ml; in assay [7] (unit assumed), 32 µg/mL.

The values above are taken from patent US3983105A, “Penicillins” (Bayer Aktiengesellschaft, priority 1971, dated 1976).
